PMC3894633 (Biochemistry, 2013)
Where two headings read alike, the source gives them in different places.

Legend:
[1] = tested on: M. tuberculosis ΔpanCDΔlysA; type: cell-based; settings: for Growth inhibition of M. tuberculosis ΔpanCDΔlysA: 7 days in culture, tested up to 100 μM, inhibition only at 100 μM
mycobacterial Lpd (mLpd) = target: T1, mycobacterial Lpd (mLpd) (Mycobacterium tuberculosis, UniProt P9WHH9); type: biochemical
T1 sequence (P9WHH9 1-464): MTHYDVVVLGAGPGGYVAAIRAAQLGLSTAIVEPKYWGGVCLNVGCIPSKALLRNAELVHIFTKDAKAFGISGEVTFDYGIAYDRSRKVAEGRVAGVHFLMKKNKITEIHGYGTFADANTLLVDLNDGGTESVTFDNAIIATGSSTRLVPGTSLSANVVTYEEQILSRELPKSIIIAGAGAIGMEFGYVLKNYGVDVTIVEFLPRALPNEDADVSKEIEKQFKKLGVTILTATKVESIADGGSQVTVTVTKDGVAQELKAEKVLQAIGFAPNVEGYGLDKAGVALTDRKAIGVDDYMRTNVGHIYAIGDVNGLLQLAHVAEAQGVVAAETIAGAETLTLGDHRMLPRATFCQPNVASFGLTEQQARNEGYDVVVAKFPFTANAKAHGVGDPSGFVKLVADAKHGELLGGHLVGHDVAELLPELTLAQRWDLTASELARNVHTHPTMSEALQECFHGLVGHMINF

M. bovis BCG = type: cell-based
human Lpd (hLpd) = target: T2, human Lpd (hLpd) (Homo sapiens, UniProt P09622); test: Human Lpd inhibition, DTNB assay with 10 μM lipoamide; type: biochemical; settings: highest concentration tested 100 μM
T2 sequence (P09622 36-509): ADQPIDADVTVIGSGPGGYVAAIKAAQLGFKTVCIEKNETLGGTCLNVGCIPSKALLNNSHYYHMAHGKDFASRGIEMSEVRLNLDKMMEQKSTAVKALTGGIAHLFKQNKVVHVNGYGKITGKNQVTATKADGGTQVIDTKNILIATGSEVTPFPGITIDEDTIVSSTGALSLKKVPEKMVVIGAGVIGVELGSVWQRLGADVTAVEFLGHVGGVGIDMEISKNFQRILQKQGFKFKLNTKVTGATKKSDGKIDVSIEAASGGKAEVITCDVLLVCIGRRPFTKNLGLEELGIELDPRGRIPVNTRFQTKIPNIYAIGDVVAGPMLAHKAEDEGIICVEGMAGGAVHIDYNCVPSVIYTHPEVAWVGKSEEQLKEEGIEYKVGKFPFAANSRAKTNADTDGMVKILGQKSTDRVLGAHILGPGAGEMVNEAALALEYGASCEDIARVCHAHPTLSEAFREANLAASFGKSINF

Mtb = settings: ref [20]; cited from earlier work
M. tuberculosis H37Rv = test: Metabolic profiling of Mtb intracellular metabolites; type: cell-based, Mycobacterium tuberculosis; settings: Mtb exposed to 75 μM

COc1ccc(CCN(C)CCCC(C#N)(c2ccc(OC)c(OC)c2)C(C)C)cc1OC (centres unmarked) [verapamil, reference compound]
Growth inhibitory effect on Mtb on its own ([1]; 50 μM): no growth inhibitory effect

CN(Cc1ccccc1)C(=O)CN(C)S(=O)(=O)c1cc(Br)cnc1N [E144-0828]
Loss of potency (mycobacterial Lpd (mLpd)): 100 fold

CN(CC(=O)Nc1ccc(F)c(Cl)c1)S(=O)(=O)c1cc(Br)cnc1N [SL418]
Growth inhibition of M. tuberculosis ΔpanCDΔlysA [1]: No growth inhibition | Growth inhibition of M. bovis BCG (M. bovis BCG; 7 days in culture, tested up to 100 μM, inhibition only at 100 μM): No growth inhibition | Inhibition of hLpd (human Lpd (hLpd)): did not inhibit

CCN(Cc1ccccc1)C(=O)CN(C)S(=O)(=O)c1cc(Br)cnc1N [E114-0951]
Loss of potency (mycobacterial Lpd (mLpd)): 100 fold

Nc1ccc(S(N)(=O)=O)cc1 [sulfanilamide]
Growth inhibitory effect on Mtb (Mtb): little or no growth inhibitory effect

COc1ccc(NC(=O)CN(C)S(=O)(=O)c2cc(Br)cnc2N)cc1 [SL827, 2-(2-amino-5-bromo-N-methylpyridine-3-sulfonamido)-N-(4-methoxyphenyl)acetamide]
Growth inhibition of M. tuberculosis ΔpanCDΔlysA [1]: No growth inhibition | Changes in alanine, valine and leucine levels (M. tuberculosis H37Rv): no changes | Growth inhibition of M. bovis BCG (M. bovis BCG): No growth inhibition | Inhibition of hLpd (human Lpd (hLpd)): did not inhibit

Nc1ncc(Br)cc1S(=O)(=O)NCCC(=O)Nc1cccc(Cl)c1 [K906-3123]
Loss of potency (mycobacterial Lpd (mLpd)): even greater loss of potency

COC(=O)[C@H]1[C@H]2C[C@@H]3c4[nH]c5cc(OC)ccc5c4CCN3C[C@H]2C[C@@H](OC(=O)c2cc(OC)c(OC)c(OC)c2)[C@@H]1OC [reserpine, reference compound]
Growth inhibitory effect on Mtb on its own ([1]; 25 μM): no growth inhibitory effect

Cc1cc(NS(=O)(=O)c2ccc(N)cc2)no1 [Sulfamethoxazole]
Growth inhibitory effect on Mtb (Mtb): little or no growth inhibitory effect
